ChEMBL document CHEMBL3797029, “Purinylpyridinylamino-based DFG-in/αC-helix-out B-Raf inhibitors: Applying mutant versus wild-type B-Raf selectivity indices for compound profiling” (Bioorg Med Chem, 2016)

Key:
[1] = target: Cyclin-dependent kinase 4/cyclin D1 (Homo sapiens) (UniProt P11802+P24385); test: Inhibition of full length wild type human CDK4-cyclinD1 expressed in mammalian system assessed as enzyme activity at 1 uM relative to control; design: scale not given: the % may be the effect or the level left
[2] = target: Ephrin type-A receptor 4 (Homo sapiens) (UniProt P54764); test: Inhibition of partial length wild type human EPHA4 expressed in bacterial system assessed as enzyme activity at 1 uM relative to control; design: scale not given: the % may be the effect or the level left
[3] = target: Insulin-like growth factor 1 receptor (Homo sapiens) (UniProt P08069); test: Inhibition of partial length wild type human IGF1R expressed in bacterial system assessed as enzyme activity at 1 uM relative to control; design: scale not given: the % may be the effect or the level left
Chain of Insulin-like growth factor 1 receptor (Homo sapiens) (P08069 31-736 limits assumed): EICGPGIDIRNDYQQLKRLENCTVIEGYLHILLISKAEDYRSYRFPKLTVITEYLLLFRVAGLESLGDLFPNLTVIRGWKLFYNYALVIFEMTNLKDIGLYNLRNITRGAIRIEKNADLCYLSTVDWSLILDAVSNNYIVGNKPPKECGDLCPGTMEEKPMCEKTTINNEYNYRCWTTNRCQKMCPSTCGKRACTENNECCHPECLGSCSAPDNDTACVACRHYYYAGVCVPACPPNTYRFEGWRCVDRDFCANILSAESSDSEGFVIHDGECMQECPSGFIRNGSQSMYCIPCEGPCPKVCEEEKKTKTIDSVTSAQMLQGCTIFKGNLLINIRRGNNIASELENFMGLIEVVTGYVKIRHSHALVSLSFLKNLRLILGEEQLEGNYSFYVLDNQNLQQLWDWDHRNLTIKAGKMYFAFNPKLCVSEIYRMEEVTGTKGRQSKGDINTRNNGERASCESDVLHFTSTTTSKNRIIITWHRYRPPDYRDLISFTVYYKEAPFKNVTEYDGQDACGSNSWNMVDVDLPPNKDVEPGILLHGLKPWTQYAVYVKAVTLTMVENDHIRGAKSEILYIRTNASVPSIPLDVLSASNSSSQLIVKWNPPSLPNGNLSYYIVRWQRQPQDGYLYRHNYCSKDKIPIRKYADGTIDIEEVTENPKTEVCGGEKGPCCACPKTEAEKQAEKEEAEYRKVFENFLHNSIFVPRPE
Chain of Insulin-like growth factor 1 receptor (Homo sapiens) (P08069 741-1367 limits assumed): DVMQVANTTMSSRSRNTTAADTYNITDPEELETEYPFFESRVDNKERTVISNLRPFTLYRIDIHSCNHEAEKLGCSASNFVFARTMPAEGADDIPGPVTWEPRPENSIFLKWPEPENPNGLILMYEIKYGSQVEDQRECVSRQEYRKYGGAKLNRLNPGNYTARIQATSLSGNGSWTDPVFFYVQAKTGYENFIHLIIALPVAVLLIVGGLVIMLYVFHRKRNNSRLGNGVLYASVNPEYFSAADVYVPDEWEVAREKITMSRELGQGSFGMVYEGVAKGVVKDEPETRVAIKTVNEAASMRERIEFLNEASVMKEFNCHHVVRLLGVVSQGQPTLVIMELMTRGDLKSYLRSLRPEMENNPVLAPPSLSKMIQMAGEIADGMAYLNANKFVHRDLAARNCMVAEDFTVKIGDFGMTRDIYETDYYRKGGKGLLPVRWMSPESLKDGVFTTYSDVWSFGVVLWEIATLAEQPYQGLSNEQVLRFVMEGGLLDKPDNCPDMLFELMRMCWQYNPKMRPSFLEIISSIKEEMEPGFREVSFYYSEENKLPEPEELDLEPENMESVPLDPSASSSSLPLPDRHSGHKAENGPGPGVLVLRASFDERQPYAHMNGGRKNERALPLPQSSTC

[4] = target: Dual specificity tyrosine-phosphorylation-regulated kinase 1B (Homo sapiens) (UniProt Q9Y463); test: Inhibition of partial length wild type human DYRK1B expressed in bacterial system assessed as enzyme activity at 1 uM relative to control; design: scale not given: the % may be the effect or the level left
[5] = target: Tyrosine-protein kinase ABL1 (Homo sapiens) (UniProt P00519); test: Inhibition of partial length wild type phosphorylated human ABL1 expressed in mammalian system assessed as enzyme activity at 1 uM relative to control; design: scale not given: the % may be the effect or the level left
[6] = target: RAC-beta serine/threonine-protein kinase (Homo sapiens) (UniProt P31751); test: Inhibition of partial length wild type human AKT2 expressed in bacterial system assessed as enzyme activity at 1 uM relative to control; design: scale not given: the % may be the effect or the level left
[7] = target: Cyclin-dependent kinase 8 (Homo sapiens) (UniProt P49336); test: Inhibition of partial length wild type human CDK8 expressed in bacterial system assessed as enzyme activity at 1 uM relative to control; design: scale not given: the % may be the effect or the level left
[8] = target: Death-associated protein kinase 1 (Homo sapiens) (UniProt P53355); test: Inhibition of partial length wild type human DAPK1 expressed in bacterial system assessed as enzyme activity at 1 uM relative to control; design: scale not given: the % may be the effect or the level left
[9] = target: Serine/threonine-protein kinase/endoribonuclease IRE1 (Homo sapiens) (UniProt O75460); test: Inhibition of partial length wild type human ERN1 expressed in mammalian system assessed as enzyme activity at 1 uM relative to control; design: scale not given: the % may be the effect or the level left
[10] = target: Insulin receptor (Homo sapiens) (UniProt P06213); test: Inhibition of partial length wild type human INSR expressed in mammalian system assessed as enzyme activity at 1 uM relative to control; design: scale not given: the % may be the effect or the level left
[11] = target: Tyrosine-protein kinase JAK2 (Homo sapiens) (UniProt O60674); test: Inhibition of partial length wild type human JAK2 (catalytic JH1 domain) expressed in mammalian system assessed as enzyme activity at 1 uM relative to control; design: scale not given: the % may be the effect or the level left
Chain of Tyrosine-protein kinase JAK2 (Homo sapiens) (O60674 whole entry, the tested form may be a part): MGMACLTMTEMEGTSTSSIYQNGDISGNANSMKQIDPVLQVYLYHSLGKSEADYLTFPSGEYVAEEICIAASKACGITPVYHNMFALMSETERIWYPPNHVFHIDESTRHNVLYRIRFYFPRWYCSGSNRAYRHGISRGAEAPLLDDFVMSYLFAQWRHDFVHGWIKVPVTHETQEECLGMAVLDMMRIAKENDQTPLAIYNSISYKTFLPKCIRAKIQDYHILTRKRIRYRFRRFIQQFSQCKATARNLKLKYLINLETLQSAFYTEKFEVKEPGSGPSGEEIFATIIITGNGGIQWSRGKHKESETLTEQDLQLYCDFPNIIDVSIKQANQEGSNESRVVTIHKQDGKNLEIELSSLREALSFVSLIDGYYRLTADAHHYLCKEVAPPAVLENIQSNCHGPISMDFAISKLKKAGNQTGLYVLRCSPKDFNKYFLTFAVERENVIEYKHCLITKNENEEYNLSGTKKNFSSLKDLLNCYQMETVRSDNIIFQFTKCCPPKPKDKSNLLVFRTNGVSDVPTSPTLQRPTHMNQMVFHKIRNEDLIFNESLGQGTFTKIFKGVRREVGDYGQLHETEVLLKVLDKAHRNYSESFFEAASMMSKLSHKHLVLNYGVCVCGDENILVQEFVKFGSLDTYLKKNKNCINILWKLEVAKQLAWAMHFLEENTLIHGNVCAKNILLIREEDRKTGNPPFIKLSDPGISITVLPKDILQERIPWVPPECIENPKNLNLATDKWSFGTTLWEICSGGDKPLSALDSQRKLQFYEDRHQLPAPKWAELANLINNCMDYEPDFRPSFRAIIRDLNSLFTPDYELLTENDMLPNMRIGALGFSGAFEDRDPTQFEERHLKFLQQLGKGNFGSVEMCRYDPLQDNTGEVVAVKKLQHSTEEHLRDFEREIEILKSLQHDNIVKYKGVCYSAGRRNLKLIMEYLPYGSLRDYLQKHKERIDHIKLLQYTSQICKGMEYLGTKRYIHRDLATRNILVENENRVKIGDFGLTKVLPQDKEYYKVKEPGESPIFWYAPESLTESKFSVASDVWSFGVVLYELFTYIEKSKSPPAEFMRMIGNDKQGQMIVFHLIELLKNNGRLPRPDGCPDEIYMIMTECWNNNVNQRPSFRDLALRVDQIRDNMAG

[12] = target: MAP/microtubule affinity-regulating kinase 3 (Homo sapiens) (UniProt P27448); test: Inhibition of full length wild type human MARK3 expressed in bacterial system assessed as enzyme activity at 1 uM relative to control; design: scale not given: the % may be the effect or the level left
[13] = target: Serine/threonine-protein kinase mTOR (Homo sapiens) (UniProt P42345); test: Inhibition of partial length wild type human MTOR expressed in mammalian system assessed as enzyme activity at 1 uM relative to control; design: scale not given: the % may be the effect or the level left
[14] = target: Serine/threonine-protein kinase D2 (Homo sapiens) (UniProt Q9BZL6); test: Inhibition of partial length wild type human PRKD2 expressed in bacterial system assessed as enzyme activity at 1 uM relative to control; design: scale not given: the % may be the effect or the level left
[15] = target: Proto-oncogene tyrosine-protein kinase Src (Homo sapiens) (UniProt P12931); test: Inhibition of partial length wild type human SRC expressed in bacterial system assessed as enzyme activity at 1 uM relative to control; design: scale not given: the % may be the effect or the level left
[16] = target: Testis-specific serine/threonine-protein kinase 1 (Homo sapiens) (UniProt Q9BXA7); test: Inhibition of full length wild type human TSSK1B expressed in bacterial system assessed as enzyme activity at 1 uM relative to control; design: scale not given: the % may be the effect or the level left
[17] = target: Serine/threonine-protein kinase B-raf (Homo sapiens, UniProt P15056); test: Inhibition of wild type B-Raf in human MIAPaCa2 cells assessed as reduction in ERK phosphorylation preincubated for 1 hr by Western blot method; format: cell-based, MIA PaCa-2
[18] = target: Serine/threonine-protein kinase B-raf (Homo sapiens, UniProt P15056, V600E); test: Inhibition of B-Raf V600E mutant in human A375 cells assessed as ERK phosphorylation preincubated for 1 hr by Western blot method; format: cell-based, A-375
[19] = target: LIM domain kinase 1 (Homo sapiens) (UniProt P53667); test: Inhibition of full length wild type human LIMK1 expressed in bacterial system assessed as enzyme activity at 1 uM relative to control; design: scale not given: the % may be the effect or the level left
[20] = target: Mast/stem cell growth factor receptor Kit (Homo sapiens) (UniProt P10721); test: Inhibition of partial length wild type human KIT expressed in bacterial system assessed as enzyme activity at 1 uM relative to control; design: scale not given: the % may be the effect or the level left
[21] = target: Rhodopsin kinase GRK1 (Homo sapiens) (UniProt Q15835); test: Inhibition of full length wild type human GRK1 expressed in mammalian system assessed as enzyme activity at 1 uM relative to control; design: scale not given: the % may be the effect or the level left
Chain of Rhodopsin kinase GRK1 (Homo sapiens) (Q15835 whole entry): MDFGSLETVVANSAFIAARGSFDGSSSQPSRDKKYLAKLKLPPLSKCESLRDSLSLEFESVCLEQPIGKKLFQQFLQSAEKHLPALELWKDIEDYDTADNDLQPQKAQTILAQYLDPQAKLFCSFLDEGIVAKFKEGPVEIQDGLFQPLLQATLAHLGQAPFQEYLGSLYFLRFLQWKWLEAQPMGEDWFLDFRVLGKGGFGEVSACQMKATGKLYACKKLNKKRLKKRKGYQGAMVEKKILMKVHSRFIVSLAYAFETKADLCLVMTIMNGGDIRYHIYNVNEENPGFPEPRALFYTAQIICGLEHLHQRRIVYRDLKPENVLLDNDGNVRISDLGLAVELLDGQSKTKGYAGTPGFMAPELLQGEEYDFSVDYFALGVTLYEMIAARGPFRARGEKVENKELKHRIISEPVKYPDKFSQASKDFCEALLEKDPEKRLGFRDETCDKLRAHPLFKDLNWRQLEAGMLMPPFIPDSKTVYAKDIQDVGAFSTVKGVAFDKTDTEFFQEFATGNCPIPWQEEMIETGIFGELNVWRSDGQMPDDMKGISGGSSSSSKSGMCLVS

[22] = target: Calcium/calmodulin-dependent protein kinase type II subunit delta (Homo sapiens) (UniProt Q13557); test: Inhibition of partial length wild type human CAMK2delta expressed in bacterial system assessed as enzyme activity at 1 uM relative to control; design: scale not given: the % may be the effect or the level left
[23] = target: Receptor-type tyrosine-protein kinase FLT3 (Homo sapiens) (UniProt P36888); test: Inhibition of partial length wild type human FLT3 expressed in bacterial system assessed as enzyme activity at 1 uM relative to control; design: scale not given: the % may be the effect or the level left
[24] = target: Tyrosine-protein kinase Lck (Homo sapiens) (UniProt P06239); test: Inhibition of partial length wild type human LCK expressed in bacterial system assessed as enzyme activity at 1 uM relative to control; design: scale not given: the % may be the effect or the level left
[25] = target: Tyrosine-protein kinase SYK (Homo sapiens) (UniProt P43405); test: Inhibition of partial length wild type human SYK expressed in bacterial system assessed as enzyme activity at 1 uM relative to control; design: scale not given: the % may be the effect or the level left
[26] = target: Epithelial discoidin domain-containing receptor 1 (Homo sapiens) (UniProt Q08345); test: Inhibition of partial length wild type human DDR1 expressed in bacterial system assessed as enzyme activity at 1 uM relative to control; design: scale not given: the % may be the effect or the level left
[27] = target: Hepatocyte growth factor receptor (Homo sapiens) (UniProt P08581); test: Inhibition of partial length wild type human MET expressed in bacterial system assessed as enzyme activity at 1 uM relative to control; design: scale not given: the % may be the effect or the level left
Chain of Hepatocyte growth factor receptor (Homo sapiens) (P08581 whole entry): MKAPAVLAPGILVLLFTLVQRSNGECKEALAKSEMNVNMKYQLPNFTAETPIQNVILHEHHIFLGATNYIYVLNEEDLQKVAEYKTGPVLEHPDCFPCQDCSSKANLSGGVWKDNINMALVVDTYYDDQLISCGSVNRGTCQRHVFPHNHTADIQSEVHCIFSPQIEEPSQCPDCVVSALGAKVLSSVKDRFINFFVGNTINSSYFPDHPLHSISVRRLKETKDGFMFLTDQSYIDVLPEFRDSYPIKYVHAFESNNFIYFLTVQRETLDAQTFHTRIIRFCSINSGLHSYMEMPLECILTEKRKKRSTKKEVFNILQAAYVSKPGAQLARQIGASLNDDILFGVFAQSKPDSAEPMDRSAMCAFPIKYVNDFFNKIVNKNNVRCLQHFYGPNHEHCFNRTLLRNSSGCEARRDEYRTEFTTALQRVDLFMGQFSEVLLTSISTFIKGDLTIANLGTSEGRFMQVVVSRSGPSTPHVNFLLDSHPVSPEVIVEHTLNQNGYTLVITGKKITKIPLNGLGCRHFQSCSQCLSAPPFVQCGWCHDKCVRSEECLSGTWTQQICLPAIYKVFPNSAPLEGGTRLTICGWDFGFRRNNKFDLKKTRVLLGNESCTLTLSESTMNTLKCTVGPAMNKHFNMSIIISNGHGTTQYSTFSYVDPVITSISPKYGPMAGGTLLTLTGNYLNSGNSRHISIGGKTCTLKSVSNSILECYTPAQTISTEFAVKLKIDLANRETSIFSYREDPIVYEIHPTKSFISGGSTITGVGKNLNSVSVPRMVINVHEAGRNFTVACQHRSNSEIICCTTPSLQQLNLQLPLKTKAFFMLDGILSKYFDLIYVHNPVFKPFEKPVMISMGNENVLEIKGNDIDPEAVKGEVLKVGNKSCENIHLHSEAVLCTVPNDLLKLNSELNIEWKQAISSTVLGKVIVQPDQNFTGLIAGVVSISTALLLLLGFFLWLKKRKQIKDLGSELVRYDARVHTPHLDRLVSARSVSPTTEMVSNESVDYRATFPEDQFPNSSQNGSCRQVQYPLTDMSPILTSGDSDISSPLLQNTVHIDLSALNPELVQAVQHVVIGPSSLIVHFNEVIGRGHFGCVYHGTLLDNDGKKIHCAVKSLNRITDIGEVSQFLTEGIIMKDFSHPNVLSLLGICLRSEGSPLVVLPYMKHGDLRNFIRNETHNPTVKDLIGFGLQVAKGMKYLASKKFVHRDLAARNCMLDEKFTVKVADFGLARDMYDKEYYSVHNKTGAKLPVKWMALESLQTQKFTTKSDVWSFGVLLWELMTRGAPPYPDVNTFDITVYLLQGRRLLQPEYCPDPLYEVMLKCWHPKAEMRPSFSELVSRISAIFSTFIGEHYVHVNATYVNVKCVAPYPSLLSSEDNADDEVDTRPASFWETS

[28] = target: Serine/threonine-protein kinase OSR1 (Homo sapiens) (UniProt O95747); test: Inhibition of full length wild type human OSR1 expressed in mammalian system assessed as enzyme activity at 1 uM relative to control; design: scale not given: the % may be the effect or the level left
[29] = target: RAC-alpha serine/threonine-protein kinase (Homo sapiens) (UniProt P31749); test: Inhibition of partial length wild type human AKT1 expressed in bacterial system assessed as enzyme activity at 1 uM relative to control; design: scale not given: the % may be the effect or the level left
Chain of RAC-alpha serine/threonine-protein kinase (Homo sapiens) (P31749 whole entry, canonical isoform): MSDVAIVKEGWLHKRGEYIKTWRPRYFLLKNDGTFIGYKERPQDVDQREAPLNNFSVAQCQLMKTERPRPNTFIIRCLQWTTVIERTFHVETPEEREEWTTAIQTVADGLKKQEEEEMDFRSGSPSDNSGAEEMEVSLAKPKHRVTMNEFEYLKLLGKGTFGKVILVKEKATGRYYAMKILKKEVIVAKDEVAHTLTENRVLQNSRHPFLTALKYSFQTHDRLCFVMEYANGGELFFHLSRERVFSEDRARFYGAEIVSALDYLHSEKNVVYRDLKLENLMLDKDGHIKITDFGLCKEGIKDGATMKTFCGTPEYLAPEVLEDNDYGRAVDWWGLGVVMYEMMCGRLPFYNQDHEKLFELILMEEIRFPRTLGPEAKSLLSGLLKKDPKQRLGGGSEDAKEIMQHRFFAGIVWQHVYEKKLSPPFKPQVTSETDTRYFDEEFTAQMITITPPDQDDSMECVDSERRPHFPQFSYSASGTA

[30] = target: Casein kinase I isoform gamma-2 (Homo sapiens) (UniProt P78368); test: Inhibition of full length wild type human CSNK1G2 expressed in bacterial system assessed as enzyme activity at 1 uM relative to control; design: scale not given: the % may be the effect or the level left
[31] = target: Vascular endothelial growth factor receptor 2 (Homo sapiens) (UniProt P35968); test: Inhibition of partial length wild type human VEGFR2 expressed in mammalian system assessed as enzyme activity at 1 uM relative to control; design: scale not given: the % may be the effect or the level left
[32] = target: Tyrosine-protein kinase BTK (Homo sapiens) (UniProt Q06187); test: Inhibition of full length wild type human BTK expressed in mammalian system assessed as enzyme activity at 1 uM relative to control; design: scale not given: the % may be the effect or the level left

CN(C)S(=O)(=O)Nc1ccc(F)c(Nc2ncccc2-c2ncnc3[nH]cnc23)c1F
Activity [1]: 98%
Activity [2]: 90%
Activity [3]: 98%
Activity [4]: 99%
Activity [5]: 100%
Activity [6]: 100%
Activity [7]: 85%
Activity [8]: 100%
Activity [9]: 100%
Activity [10]: 100%
Activity [11]: 100%
Activity [12]: 87%
Activity [13]: 100%
Activity [14]: 88%
Activity [15]: 100%
Activity [16]: 100%
EC50 [17]: 1780 nM
IC50 [18]: 54 nM
Activity [19]: 57%
Activity [20]: 68%
Activity [21]: 76%
Activity [22]: 83%
Activity [23]: 71%
Activity [24]: 79%
Activity [25]: 76%
Activity [26]: 88%
Activity [27]: 88%
Activity [28]: 88%
Activity [29]: 87%
Activity [30]: 60%
Activity [31]: 84%
Activity [32]: 95%
